Series [1] addresses T1, NLRP3 (Homo sapiens, UniProt Q96P20). The series is described as follows: Human whole blood IL1β release assay. The class given is cell-based. The arrangement: Human whole blood in Li-heparin tubes was obtained from healthy donors; from tissue; host or cells: human whole blood from healthy donors, LPS-primed, nigericin-stimulated. As to conditions: human whole blood, 1 μg/ml LPS, compound 3 hrs, nigericin 10 μM 1 hr, IL-1β AlphaLisa; read-out: HWB IC50. The protocol: Human Whole Blood IL1β Release Assay
For systemic delivery, the ability to inhibit NLRP3 when the compounds are present within the bloodstream is of great importance. For this reason, the NLRP3 inhibitory activity of a number of compounds in human whole blood was investigated in accordance with the following protocol.
Human whole blood in Li-heparin tubes was obtained from healthy donors from a volunteer donor panel. • 1. Plate out 80 μl of whole blood containing 1 μg/ml of LPS in 96-well, clear bottom cell culture plate (Corning #3585) • 2. Add 10 μl compound (8 points half-log dilution with 10 μM top dose) or vehicle (DMSO 0.1% FAC) to the appropriate wells • 3. Incubate for 3 hrs at 37° C., 5% CO2 • 4. Add 10 μl Nigericin (Sigma #N7143) (10 μM FAC) to all wells • 5. Incubate for 1 hr at 37° C., 5% CO2 • 6. At the end of the incubation period, spin plates at 300 xg for 5 mins to pellet cells and remove 20 μl of supernatant and add to 96-well v-bottom plates for IL-1β analysis (note: these plates containing the supernatants can be stored at −80° C. to be analysed at a later date) • 7. IL-1β was measured according to the manufacturer protocol (Perkin Elmer-AlphaLisa IL-1 Kit AL220F-5000) • 8. IC50 data is fitted to a non-linear regression equation (log inhibitor vs response-variable slope 4-parameters)

The target of series [2] is T1, NLRP3. The experiment in a line: THP-1 cells pyroptosis assay. As to conditions: THP-1 cells, 1.0 μg/ml LPS, compound 3 hrs, nigericin 5 μM 1 hr, resazurin readout; read-out: THP IC50. It counts as cell-based. The arrangement: Seed THP-1 cells (25,000 cells/well) containing 1.0 μg/ml LPS; host or cells: THP-1 cells, LPS-primed, nigericin-stimulated. From the text:
NLRP and Pyroptosis It is well established that the activation of NLRP3 leads to cell pyroptosis and this feature plays an important part in the manifestation of clinical disease (Yan-gang Liu et al., Cell Death &Disease, 2017, 8(2), e2579; Alexander Wree et al., Hepatology, 2014, 59(3), 898-910; Alex Baldwin et al., Journal of Medicinal Chemistry, 2016, 59(5), 1691-171; Ema Ozaki et al., Journal of Inflammation Research, 2015, 8, 15-27; Zhen Xie & Gang Zhao, Neuroimmunology Neuroinflammation, 2014, 1(2), 60-65; Mattia Cocco et al., Journal of Medicinal Chemistry, 2014, 57(24), 10366-10382; T. Satoh et al., Cell Death &Disease, 2013, 4, e644). Therefore, it is anticipated that inhibitors of NLRP3 will block pyroptosis, as well as the release of pro-inflammatory cytokines (e.g. […]) from the cell. THP-1 Cells: Culture and Preparation THP-1 cells (ATCC #TIB-202) were grown in RPMI containing L-glutamine (Gibco #11835) supplemented with imM sodium pyruvate (Sigma #S8636) and penicillin (100 units/ml)/streptomycin (0.1 mg/ml) (Sigma #P4333) in 10% Fetal Bovine Serum (FBS) (Sigma #Fo804). The cells were routinely passaged and grown to confluency (˜10^6 cells/ml). On the day of the experiment, THP-1 cells were harvested and resuspended into RPMI medium (without FBS). The cells were then counted and viability (>90%) checked by Trypan blue (Sigma #T8154). Appropriate dilutions were made to give a concentration of 625,000 cells/ml. To this diluted cell solution was added LPS (Sigma #L4524) to give a […] Final Assay Concentration (FAC). 40 μl of the final preparation was aliquoted into each well of a 96-well plate. The plate thus prepared was used for compound screening. THP-1 Cells Pyroptosis Assay The following method step-by-step assay was followed for compound screening. • 1. Seed THP-1 cells (25,000 cells/well) containing 1.0 μg/ml LPS in 40 μl of RPMI medium (without FBS) in 96-well, black walled, clear bottom cell culture plates coated with poly-D-lysine (VWR #734-0317) • 2. Add […] compound (8 points half-log dilution, with 10 μM top dose) or vehicle (DMSO 0.1% FAC) to the appropriate wells • 3. […] Add 5 μl nigericin (Sigma #N7143) (FAC 5 μM) to all wells • 5. […] At the end of the incubation period, spin plates at 300 xg for 3 mins and remove supernatant • 7. Then add 50 μl of resazurin (Sigma #R7017) (FAC 100μ M resazurin in RPMI medium without FBS) and incubate plates for a further 1-2 hrs at 37° C. and 5% CO2 • 8. Plates were read in an Envision reader at Ex 560 nm and Em 590 nm • 9. IC50 data is fitted to a non-linear regression equation (log inhibitor vs response-variable slope 4-parameters) [table]

The nature of series [3]: Pharmacokinetic parameters in male Sprague Dawley rats (intravenous and oral administration). The settings on record: intravenous administration, rat plasma; dose per compound (mg/kg). It counts as in vivo. As to the method: Pharmacokinetic parameters were determined in male Sprague Dawley rats (Charles River, UK, 250-350 g; or Vital River Laboratory Animal Technology Co Ltd, Beijing, China, 7-9 weeks old). Animals were individually housed during the study and maintained under a 12 h light/dark cycle. Animals had free access to food and water except that some orally dosed animals were food deprived overnight prior to the study.
For intravenous administration, compounds were formulated as a solution in water or DMSO:PBS [10:90] in 2 mL/kg dosing volume and administered via tail vein. For oral administration, compounds were formulated as a solution in water or DMSO:water [10:90] in 5 mL/kg dosing volume and administered orally.
Serial blood samples (about 120-300 μL) were taken from each animal at each of 8 time-points post dose (0.083, 0.25, 0.5, 1, 2, 4, 8 and 24 h) or at each of 12 time-points post dose (0.03, 0.1, 0.17, 0.25, 0.5, 1, 2, 4, 6, 8,12 and 24 h) or pre-dose and at each of 9 time-points post dose (0.25, 0.5, 1, 2, 4, 6, 8, 12 and 24 h). Samples were held on ice for no longer than 30 minutes before centrifugation (10,000 rpm (8,385 g) for 3 minutes; or 5,696 rpm (3,000 g) for 15 minutes) for plasma generation. Plasma was frozen on dry ice prior to bioanalysis. PK parameters were generated from LC-MS/MS data using Dotmatics or Phoenix WinNonlin 6.3 software.

Structures can show the parent of a compound that is named as a salt.

T1 sequence (Q96P20 whole entry): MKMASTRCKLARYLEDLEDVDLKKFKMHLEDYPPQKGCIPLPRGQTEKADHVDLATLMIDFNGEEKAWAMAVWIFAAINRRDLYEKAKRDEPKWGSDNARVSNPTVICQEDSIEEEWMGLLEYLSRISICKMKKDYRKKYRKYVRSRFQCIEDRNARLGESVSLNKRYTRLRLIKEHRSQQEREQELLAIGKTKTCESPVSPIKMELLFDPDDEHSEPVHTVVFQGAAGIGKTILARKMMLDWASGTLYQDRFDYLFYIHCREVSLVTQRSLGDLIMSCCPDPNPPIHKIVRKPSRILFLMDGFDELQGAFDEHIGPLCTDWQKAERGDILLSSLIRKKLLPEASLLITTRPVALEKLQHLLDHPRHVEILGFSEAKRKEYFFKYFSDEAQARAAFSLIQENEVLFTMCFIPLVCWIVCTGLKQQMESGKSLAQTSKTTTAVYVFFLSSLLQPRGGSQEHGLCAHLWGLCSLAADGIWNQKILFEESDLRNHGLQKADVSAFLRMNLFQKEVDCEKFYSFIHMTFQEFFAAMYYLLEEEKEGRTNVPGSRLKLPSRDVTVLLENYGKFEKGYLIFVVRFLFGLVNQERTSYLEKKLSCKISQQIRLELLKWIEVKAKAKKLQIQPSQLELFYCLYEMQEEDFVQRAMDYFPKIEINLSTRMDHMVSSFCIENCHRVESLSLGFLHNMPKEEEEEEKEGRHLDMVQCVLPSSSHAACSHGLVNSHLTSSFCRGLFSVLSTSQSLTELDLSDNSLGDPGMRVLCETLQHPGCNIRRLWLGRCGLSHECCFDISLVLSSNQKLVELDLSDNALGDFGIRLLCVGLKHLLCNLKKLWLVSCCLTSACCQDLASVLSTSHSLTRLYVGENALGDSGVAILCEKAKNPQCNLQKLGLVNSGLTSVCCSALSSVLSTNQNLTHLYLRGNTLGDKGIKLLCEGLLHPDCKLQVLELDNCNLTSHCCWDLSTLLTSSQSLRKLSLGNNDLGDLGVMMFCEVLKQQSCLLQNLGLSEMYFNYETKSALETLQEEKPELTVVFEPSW

As to `CN(C)C(=O)Cn1ccc(S(=O)(=O)NC(=O)Nc2c3c(cc4c2CCC4)CCC3)n1` [Example 1, 2-(3-(N-((1,2,3,5,6,7-Hexahydro-s-indacen-4-yl)carbamoyl)sulfamoyl)-1H-pyrazol-1-yl)-N,N-dimethylacetamide, sodium salt], the IC50 is below 10000 nM in series [1] and below 640 nM in series [2].

For `CNC(=O)Cn1ccc(S(=O)(=O)NC(=O)Nc2c3c(cc4c2CCC4)CCC3)n1` [Example 2, 2-(3-(N-((1,2,3,5,6,7-Hexahydro-s-indacen-4-yl)carbamoyl)sulfamoyl)-1H-pyrazol-1-yl)-N-methylacetamide], the results for the IC50 in series [1] and in series [2] were below 3200 nM and below 640 nM, respectively.

For the molecule `O=C(Nc1c2c(cc3c1CCC3)CCC2)NS(=O)(=O)c1ccn(CCN2CCCC2)n1` [Example 3, N-((1,2,3,5,6,7-Hexahydro-s-indacen-4-yl)carbamoyl)-1-(2-(pyrrolidin-1-yl)ethyl)-1H-pyrazole-3-sulfonamide, sodium salt], the IC50 in series [1] was below 1600 nM; in series [2], below 640 nM.

Consider `CN(C)C1(Cn2ccc(S(=O)(=O)NC(=O)Nc3c4c(cc5c3CCC5)CCC4)n2)CC1` [Example 11, 1-((1-(Dimethylamino)cyclopropyl)methyl)-N-((1,2,3,5,6,7-hexahydro-s-indacen-4-yl)carbamoyl)-1H-pyrazole-3-sulfonamide], for which the IC50 in series [1] was below 1600 nM; in series [2], below 640 nM.

Regarding `CN1CC(n2ccc(S(=O)(=O)NC(=O)Nc3c4c(cc5c3CCC5)CCC4)n2)C1` [Example 12, N-((1,2,3,5,6,7-Hexahydro-s-indacen-4-yl)carbamoyl)-1-(1-methylazetidin-3-yl)-1H-pyrazole-3-sulfonamide], the IC50 in series [1] is below 1600 nM; in series [2] it was below 2560 nM.

In the case of `CNCCn1ccc(S(=O)(=O)NC(=O)Nc2c3c(cc4c2CCC4)CCC3)n1` [Example 13, N-((1,2,3,5,6,7-Hexahydro-s-indacen-4-yl)carbamoyl)-1-(2-(methylamino)ethyl)-1H-pyrazole-3-sulfonamide], the IC50 in series [1] is below 800 nM; in series [2] it was below 640 nM.

Regarding `O=C(Nc1c2c(cc3c1CCC3)CCC2)NS(=O)(=O)c1ccn(C2CNC2)n1` [Example 14, 1-(Azetidin-3-yl)-N-((1,2,3,5,6,7-hexahydro-s-indacen-4-yl)carbamoyl)-1H-pyrazole-3-sulfonamide], the IC50 in series [1] is below 3200 nM; in series [2], below 640 nM.

For the molecule `C[C@@H](Cn1ccc(S(=O)(=O)NC(=O)Nc2c3c(cc4c2CCC4)CCC3)n1)N(C)C` [Example 18, (S)-1-(2-(Dimethylamino)propyl)-N-((1,2,3,5,6,7-hexahydro-s-indacen-4-yl)carbamoyl)-1H-pyrazole-3-sulfonamide], the IC50 was below 800 nM in series [1] and below 160 nM in series [2].

Take `CN(CCO)Cc1cc(S(=O)(=O)NC(=O)Nc2c3c(cc4c2CCC4)CCC3)nn1C` [Example 124, N-((1,2,3,5,6,7-Hexahydro-s-indacen-4-yl)carbamoyl)-5-(((2-hydroxyethyl)(methyl)amino)methyl)-1-methyl-1H-pyrazole-3-sulfonamide]: in series [3], the AUC was found to be 2067.0 ng·h/mL, the Cl is given as 8.1 mL/min/kg, the T1/2 is 14.2 h and the Vdss was 1.9 L/kg. Also, in series [2], the IC50 is below 160 nM.

For `Cn1nc(S(=O)(=O)NC(=O)Nc2c3c(cc4c2CCC4)CCC3)cc1C(=O)NCCO` [Example 174, 3-(N-((1,2,3,5,6,7-Hexahydro-s-indacen-4-yl)carbamoyl)sulfamoyl)-N-(2-hydroxyethyl)-1-methyl-1H-pyrazole-5-carboxamide, partial ammonium salt], the 50% inhibitory concentration (IC50) in series [2] is below 10000 nM.

As for `COCCNC(=O)c1cc(S(=O)(=O)NC(=O)Nc2c3c(cc4c2CCC4)CCC3)nn1C` [Example 175, 3-(N-((1,2,3,5,6,7-Hexahydro-s-indacen-4-yl)carbamoyl)sulfamoyl)-N-(2-methoxyethyl)-1-methyl-1H-pyrazole-5-carboxamide, partial ammonium salt], the IC50 in series [2] was below 10000 nM.

`CN(C)CCn1cc(S(=O)(=O)NC(=O)Nc2c3c(cc4c2CCC4)CCC3)cn1` [Example 182, 1-(2-(Dimethylamino)ethyl)-N-((1,2,3,5,6,7-hexahydro-s-indacen-4-yl)carbamoyl)-1H-pyrazole-4-sulfonamide]: the IC50 in series [2] was below 2560 nM.

With `CC(C)c1cc(Cl)cc(C(C)C)c1NC(=O)NS(=O)(=O)c1ccn(C(C)(C)CN(C)C)n1` [Example 200, N-((4-Chloro-2,6-diisopropylphenyl)carbamoyl)-1-(1-(dimethylamino)-2-methylpropan-2-yl)-1H-pyrazole-3-sulfonamide], the IC50 in series [2] was below 2560 nM.

For `CC(C)c1cc(F)cc(C(C)C)c1NC(=O)NS(=O)(=O)c1ccn(C(C)(C)CN(C)C)n1` [Example 201, 1-(1-(Dimethylamino)-2-methylpropan-2-yl)-N-((4-fluoro-2,6-diisopropylphenyl)carbamoyl)-1H-pyrazole-3-sulfonamide], the IC50 in series [2] is below 2560 nM.

Turning to `C[C@@H](CN(C)C)n1ccc(S(=O)(=O)NC(=O)Nc2c3c(cc4c2CCC4)CCC3)n1` [Example 203, (S)-1-(1-(Dimethylamino)propan-2-yl)-N-((1,2,3,5,6,7-hexahydro-s-indacen-4-yl)carbamoyl)-1H-pyrazole-3-sulfonamide], the concentration for half-maximal inhibition (IC50) in series [2] is below 640 nM.

The values are drawn from patent US11613542B2, “Sulfonylureas and sulfonylthioureas as NLRP3 inhibitors” (Inflazome Limited, priority 2017, dated 2023).
